# Laboratory results from patent US6004952A, “Micacocidin derivatives” (Shinogi & Co., Ltd., priority 1996, dated 1999).
# Read-outs that look alike come from different tables or passages of the source.
# Legend:
# [1] = tested on: Serpulina hyodysenteriae; assay: MIC, agar dilution method, anaerobic, Serpulina hyodysenteriae; assay type: cell-based, S. hyodysenteriae ATCC 27164
# [2] = tested on: M. pneumoniae; assay: MIC, liquid dilution method, Mycoplasma pneumoniae; settings: Mycoplasmoides pneumoniae
# [3] = tested on: Mycoplasma; assay: MIC to Mycoplasmas (summary in words); assay type: cell-based
# [4] = tested on: mice spleen cells; assay: Suppression of reaction of mice spleen cells to lypopolysaccaride (LPS), in vitro (MTT); assay type: cell-based, BDF1 mice
# Method: (§1) To each well of 96 well microtiter plate were added 5×10^5 spleen cells of BDF1 mice suspended in 0.1 ml of RPMI 1640 medium supplemented with 10% bovine fetus serum (supplemented with 2 mM sodium hydrogen carbonate, 50 Units/ml of penicillin, 50 μg/ml of streptomycin, and 5×10^-5 M of 2-mercaptoethanol), and then, 5 μg/ml of Concanavalin A (Con A) or 10 μg/ml of lypopolysaccaride (LPS) and various concentrations of test substance, of which final volume was adjusted to 0.2 ml. Test substances were dissolved in dimethylsulfoxide (DMSO), diluted with RPMI 1640 stated above, and added to the wells so that final concentration of the substances becomes less than 10000 ng/ml. The 96-well microtiter plates were cultured at 37° C. for 3 days in an incubator which was maintained at the humidity of 100%, 5% of carbon dioxide and 95% of air. After cultivation is completed, […] of 6 mg/ml solution of MTT {3-(4,5-dimethylthiazol-2yl)-2,5 diphenyltetrazoliumbromide} (Sigma) is added to each well, which is cultured at 37° C. for […] under the same conditions. After cultivation is completed, formazan formed is dissolved by adding 50 μl of a solution of 20% dodecyl sodium sulfonate (SDS) in 0.02N hydrochloric acid and kept standing at 37° C. for 24 hours. The absorbance (OD) of the formazan which was produced in proportion to the number of alive cells, was determined by using immunoreader equipped with 570 nm filter (see The Journal of Immunological Methods, Vol.65, 55-63, 1983).
# (§2) Cell growth inhibition rate and IC50 value were calculated according to the correlation between the concentration and the absorbance for each substance.
# [5] = Cytotoxicity to primary chicken kidney culture cells; assay type: cell-based; settings: primary chicken kidney cells
# [6] = tested on: M. hyopneumoniae; assay: MIC, liquid dilution method, Mycoplasma hyopneumoniae; settings: Mesomycoplasma hyopneumoniae
# [7] = tested on: M. gallisepticum; assay: MIC, liquid dilution method, Mycoplasma gallisepticum; settings: Mycoplasmoides gallisepticum
# [8] = tested on: Clostridium perfringens; assay: microbe, parasite or virus in culture; assay type: cell-based, C. perfringens ATCC 13124
# [9] = tested on: mice spleen cells; assay: Suppression of reaction of mice spleen cells to Concanavalin A, in vitro (MTT); assay type: cell-based, BDF1 mice
# Method: as §1, §2
# [10] = tested on: Eimeria tenella; assay: Growth inhibition activities to avian coccidium in primary chicken kidney cells; assay type: cell-based; settings: Eimeria tenella; more than 80% of suppression rate regarded as effective; read-out: Effective dose (growth inhibition)
# Method: The kidneys of SPF new born chicken was sterilely removed, which was treated with trypsin and the resultant primary kidney cells were cultured in 24-well plate. Monolayer culture after cultured for 3 days was treated simultaneously with compounds adjusted to predetermined concentration and sporozoit obtained by artificial excystation, which was cultured a 40° C. Premature and mature schizonts were observed under microscope, and the growth inhibition activities (suppression rate) for each treatment group were calculated at a proportion of the number of schizonts for the sporozoit-inoculated, compound-untreated control group (100%).
# [11] = tested on: Aspergillus fumigatus; assay: Antifungal activity, micro-liquid dilution method, Aspergillus fumigatus; assay type: cell-based, Aspergillus fumigatus strain MA; settings: Aspergillus fumigatus, 24 h, 30° C., read-out: Antifungal activities: IC50
# Method: (§3) Antifungal activities of the compounds to Candida albicans (strain Ca-15) and Asperilhm fumigatus (strain MA), representative pathogenic fungi, were determined by micro-liquid dilution method using 96-well microplates. A fungal suspension stored under freezing was adjusted to 1×1 O^5 CFU/ml by medium, of which 100 μl portions were charged into each well. The compound of the present invention was dissolved in dimethylsulfoxide (DMSO). Using the resultant solution, 2-fold dilution series were prepared together with the fungal suspension charged into the wells. YNB medium and RPMI medium were used. After cultured for 24 hours at 30° C., evaluation was performed by detecting the turbidity (wave length: 595 nm) using microplate reader.
# [12] = tested on: Candida albicans; assay: Antifungal activity, micro-liquid dilution method, Candida albicans; assay type: cell-based, Candida albicans strain Ca-15; settings: Candida albicans, 24 h, 30° C., read-out: Antifungal activities: IC50
# Method: as §3
SMILES,MIC [2] [µg/mL],MCC [5] [µg/mL],MIC [6] [µg/mL],MIC [7] [µg/mL],minimal effective concentration [10] [µg/mL],also measured
CCCCCc1cccc(OCOC)c1C1=NC(C2SCC(C(O)C(C)(C)C3=NC(C)(C(=O)OCOC)CS3)N2C)CS1 (centres unmarked) [Compound 18],0.025,> 10,0.05,1.56,10,"activity to Serpulina (Treponema) hyodysenteriae [1]: showed the activity; MICs to Mycoplasmas [3]: low MICs; suppression of the reaction to LPS of spleen cells [4]: suppressed; inhibition at 0.039 µg/mL ([4]; Mus musculus, 72 h, LPS, 39 ng/ml, read-out: Suppression rate): 27.4%; inhibition at 0.078 µg/mL ([4]; Mus musculus, 72 h, LPS, 78 ng/ml, read-out: Suppression rate): 41.5%; inhibition at 0.156 µg/mL ([4]; Mus musculus, 72 h, LPS, 156 ng/ml, read-out: Suppression rate): 74.6%; inhibition at 0.312 µg/mL ([4]; Mus musculus, 72 h, LPS, 312 ng/ml, read-out: Suppression rate): 93.4%; inhibition at 0.625 µg/mL ([4]; Mus musculus, 72 h, LPS, 625 ng/ml, read-out: Suppression rate): 101%; IC50 ([4]; Mus musculus, LPS): 0.084 µg/mL; activity to Clostridium perflingens [8]: showed the activity; suppression of the reaction to Con A of spleen cells [9]: suppressed; inhibition at 0.039 µg/mL ([9]; Mus musculus, 72 h, Con A, 39 ng/ml, read-out: Suppression rate): 14.7%; inhibition at 0.078 µg/mL ([9]; Mus musculus, 72 h, Con A, 78 ng/ml, read-out: Suppression rate): 25.7%; inhibition at 0.156 µg/mL ([9]; Mus musculus, 72 h, Con A, 156 ng/ml, read-out: Suppression rate): 75.5%; inhibition at 0.312 µg/mL ([9]; Mus musculus, 72 h, Con A, 312 ng/ml, read-out: Suppression rate): 94.9%; inhibition at 0.625 µg/mL ([9]; Mus musculus, 72 h, Con A, 625 ng/ml, read-out: Suppression rate): 98.6%; IC50 ([9]; Mus musculus, Con A): 0.101 µg/mL"
CCCCCc1cccc(OCc2ccc(Cl)cc2)c1C1=NC(C2SCC(C(OCc3ccc(Cl)cc3)C(C)(C)C3=NC(C)(C(=O)OCc4ccc(Cl)cc4)CS3)N2C)CS1 (centres unmarked) [Compound 21],,> 10,,,> 10,
CCCCCc1cccc(O)c1C1=NC(C2SCC(C(O)C(C)(C)C3=NC(C)(C(=O)OCc4ccc(Cl)cc4)CS3)N2C)CS1 (centres unmarked) [Compound 22],0.39,> 10,0.1,> 3.13,2.5,
CCCCCc1cccc(O)c1C1=NC(C2SCC(C(O)C(C)(C)C3=NC(C)(C(=O)N(C)O)CS3)N2C)CS1 (centres unmarked) [Compound 25],,,,,,IC50 ([11]; RPMI medium): 0.2 µg/mL; IC50 ([11]; YNB medium): 50 µg/mL; IC50 ([12]; RPMI medium): 6.3 µg/mL; IC50 ([12]; YNB medium): 50 µg/mL
CCCCCc1cccc(O)c1C1=NC(C2SCC(C(O)C(C)(C)C3=NC(C)(C(=O)NC(C)C(=O)OC)CS3)N2C)CS1 (centres unmarked) [Compound 28],0.05,> 10,0.1,0.39,10,MICs to Mycoplasmas [3]: low MICs
CCCCCc1cccc(O)c1C1=NC(C2SCC(C(O)C(C)(C)C3=NC(C)(C(=O)NCCO)CS3)N2C)CS1 (centres unmarked) [Compound 30],0.2,> 10,0.39,0.78,2.5,
CCCCCc1cccc(O)c1C1=NC(C2SCC(C(O)C(C)(C)C3=NC(C)(C(N)=O)CS3)N2C)CS1 (centres unmarked) [Compound 31],0.2,10,0.2,0.39,,
CCCCCc1cccc(O)c1C1=NC(C2SCC(C(O)C(C)(C)C3=NC(C)(CO)CS3)N2C)CS1 (centres unmarked) [Compound 32],0.025,> 10,0.05,0.39,10,
